Test results published in paper PMC12689647, “Evaluation of bromadiolone combined with ciprofloxacin, vitamin D, aspirin, and cinnamon as an apoptosis-mediated rodenticide strategy” (Scientific Reports, 2025).
Read-outs that look alike come from different tables or passages of the source.

How the values were obtained:
p21 = experiment: Western blot of liver tissue, p21; type: in vivo, Rattus norvegicus; settings: Western blot normalized to β-actin, oral, 21 days
Method: (§1) Adult male rats (n = 7 × 9 = 63), weighing 150–200 g, were randomized and divided into seven groups. Group I served as the control. Group II received the vehicle control (0.1 ml/100 g ethanol). Group III was treated with bromadiolone (B) at ½ LD₅₀ (0.8 mg/kg)[28]. Group IV received bromadiolone (0.8 mg/kg) + ciprofloxacin (Anti.20 mg/kg)[29]. Group V received bromadiolone (0.8 mg/kg) + ciprofloxacin (20 mg/kg) + vitamin D (Vit. D 35 mg/kg)[30]. Group VI received bromadiolone (0.8 mg/kg) + ciprofloxacin (20 mg/kg) + vitamin D (35 mg/kg) + cinnamon (Cin. 2 g/kg)[31]. Group VII received bromadiolone (0.8 mg/kg) + ciprofloxacin (20 mg/kg) + vitamin D (35 mg/kg) + aspirin (A. 150 mg/kg)[32]. All doses were administered orally to wild rats over 21 days. The chemical we used for the euthanizing process: rats were narcotized by Ketamine + xylazine injection (IP) and then sacrificed by slaughtering.
(§2) For the immunodetection and quantification of proteins such as p21 and cleaved caspase-3, markers of apoptotic cell death under various treatments, liver tissue was homogenized using RIPA lysis buffer. The samples were chopped and briefly sonicated on ice, and protein concentration was measured. Proteins (20 µg) were separated using SDS-PAGE and transferred to a nitrocellulose membrane. […] The optical densities of the bands were quantified and normalized to β-actin (1:5000) using ImageJ software.

cleaved caspase-3 = experiment: Western blot of liver tissue, cleaved caspase-3; type: in vivo, Rattus norvegicus; settings: Western blot normalized to β-actin, oral, 21 days
Method: as §1, §2

p53 = experiment: Immunohistochemical detection of p53 in liver sections; type: in vivo, Rattus norvegicus; settings: liver immunohistochemistry; oral, 21 days
Method: as §1
Using xylene, paraffin-embedded tissues were deparaffinized and then rehydrated through a graded series of ethanol solutions. Antigen retrieval was performed by boiling the slides in 1 mM EDTA. The sections were then incubated in 3% H2O2 for ten minutes, washed with wash buffer (1X PBS) for five minutes, and blocked for one hour at room temperature. A 1:1000 dilution of the p53 primary antibody was then applied. […]

liver DNA = type: in vivo, Rattus norvegicus; settings: oral, 21 days
Method: as §1
For the coated slides, 100 µL of cell suspension was mixed with 600 µL of low-melting agarose (0.8% in PBS). The coated slides were immersed for 15 min in a lysis solution containing 2.5% sodium dodecyl sulfate (SDS) and 0.045 M Tris-borate-EDTA (TBE) buffer at pH 8.4. The slides were then placed in an electrophoresis chamber filled with TBE buffer without SDS. Electrophoresis was conducted at 100 mA for two minutes at 2 V/cm. Staining was performed at 4 °C using 20 µg/mL ethidium bromide (EtBr). EtBr-stained DNA was visualized using a fluorescent microscope with a 40× objective and an excitation filter of 420–490 nm to detect DNA damage. Qualitative and quantitative assessments of tail length, tail moment, olive tail moment, and percentage of DNA in the head were determined using OpenComet software to evaluate five images.

liver cells = experiment: Apoptosis estimation by acridine orange fluorescence staining; type: in vivo, Rattus norvegicus; settings: AO staining, oral, 21 days
Method: as §1
Before staining with 0.01% acridine orange (AO) (stock solution: 0.1% AO in distilled water, diluted with phosphate buffer to a staining solution at pH 7.2), the sample was quickly passed through a graded alcohol series (80 − 50%) followed by distilled water. […] Acridine orange emits sharp green fluorescence when bound to DNA (apoptosis).

male wild rats = experiment: Serum measurements (AST, ALT, Ca2+, RBCs, Hgb, PT); type: in vivo, Rattus norvegicus; settings: oral, 21 days
Method: as §1
(§3) Determination of ionized calcium, RBC count, Hb, and prothrombin time (PT) was conducted at a private biochemical laboratory in Assiut, Egypt, using a Genuri KT-6400 automatic hematology analyzer (China). ALT and AST activities in blood plasma were measured using specific kits (Boehringer Mannheim, Mannheim, Germany) according to the manufacturer’s instructions. […]. The concentration of reduced glutathione (GSH) was estimated based on[37] and measured using spectrophotometry.

liver of male wild rats [1] = experiment: Hepatic lipid peroxidation (LPO) and reduced glutathione (GSH); type: in vivo, Rattus norvegicus; settings: oral, 21 days
Method: as §1, §3

liver of male wild rats [2] = experiment: Semi-quantitative scoring of histopathological lesions in the liver (H&E); type: in vivo, Rattus norvegicus; design: key to Fatty deposition / Hemorrhage / Thickening of blood vessels / Loss of liver architecture: (-) Absent lesion; (+) Slight (< 25%); (++) Moderate (from 25–50%); (+++) Severe (> 50%); settings: liver H&E lesion score; oral, 21 days
Method: as §1
. Hematoxylin, eosin stains was applied to 5 μm-thick paraffin Sect[38]. Four categories were established based on the histological evaluation of nine liver tissue lesions: (−) no lesion, (+) mild (less than 25%), (++) moderate (between 25% and 50%), and (+++) severe (more than 50%)[39]. We examined about 5 photos for each rat in each groups; 5 × 63 = 315 photos for assessments. Examination and photography were conducted using a digital camera (ToupTek ToupView, copyright 2019, version x86, compatible with Windows XP/Vista/7/8/10, China) and a light microscope (Olympus CX31, Japan).

[3] = system: male wild rats of Rattus norvegicus; type: in vivo; settings: oral

## O=c1oc2ccccc2c(O)c1C(CC(O)c1ccc(-c2ccc(Br)cc2)cc1)c1ccccc1 (centres unmarked) [Bromadiolone]
p21
  increase in p21 level compared to the control: 96.65%
Cleaved caspase-3
  increase in cleaved caspase-3 level compared to the control: 75.92%
p53
  increase in p53 levels compared to the control: 60.74%
  p53 immunoreactivity in liver sections: moderate brown immunoreactivity
Liver DNA; liver comet assay photomicrographs
  degree of liver DNA damage by comet assay: moderate amount of damaged DNA
Liver DNA; liver comet assay
  increase in olive tail moment (OTM) compared to the control: 710.02%
  increase in tail DNA% (T.DNA%) compared to the control: 222.35%
  increase in tail length (TL) compared to the control: 155.04%
  increase in tail moment (TM) compared to the control: 506.09%
Liver cells
  decrease in normal cells compared to the control: 18.66%
  increase in apoptotic cells compared to the control: 109.72%
Male wild rats; control 4.640 ± 0.2943
  Ca2+ serum, Mean ± SE: 13.15 ± 0.9675 mg/dL
Male wild rats; control 11.08 ± 0.1956
  RBCs serum, Mean ± SE: 8.240 ± 0.5015 M/µl
Male wild rats; control 11.92 ± 0.3813
  Hgb serum, Mean ± SE: 11.4 ± 0.2358 g/dL
Male wild rats; control 21.25 ± 2.212
  PT (prothrombin time) serum, Mean ± SE: 37.43 ± 1.329 s
Male wild rats; control 92.37 ± 5.279
  AST serum, Mean ± SE: 130.8 ± 8.149 U/L
Male wild rats; control 184.8 ± 4.632
  ALT serum, Mean ± SE: 225.5 ± 1.679 U/L
Liver of male wild rats [1]; control 1.458 ± 0.1402
  LPO, Mean ± SE: 1.660 ± 0.1817 nmol/ mg protein
Liver of male wild rats [1]; control 10.42 ± 0.4500
  GSH, Mean ± SE: 6.953 ± 0.1538 ng/mg protein
Liver of male wild rats [2]
  Cellular infiltration: ++ ((++) Moderate (from 25–50%))
  Congested blood vessels: ++ ((++) Moderate (from 25–50%))
  Dilated blood sinusoids: + ((+) Slight (< 25%))
  Fatty deposition: -
  Features of necrosis: Karyolysis: + ((+) Slight (< 25%))
  Features of necrosis: Karyorrhexis: + ((+) Slight (< 25%))
  Features of necrosis: Pyknosis: ++ ((++) Moderate (from 25–50%))
  Hemorrhage: -
  Loss of liver architecture: -
  Necrotic areas: + ((+) Slight (< 25%))
  Thickening of blood vessels: -
  Vacuolated cytoplasm: ++ ((++) Moderate (from 25–50%))
[3]; time 5 days
  Observed response %: 50%
[3]; time 6 days
  Observed response %: 62.5%
[3]; time 6 days, probit fit
  Linear probit: 5.4393
  Linear response %: 66.9788%
